# Assay results: ChEMBL document CHEMBL3885861, “Open TG-GATES”
# Organism: Rattus norvegicus
# Assay: Open TG-GATES - Regimen: Daily Repeat
# Assay type: toxicity, organism-based, Sprague-Dawley
# Design: regimen Daily Repeat, gender Male, age 6 weeks
# Conditions: in vivo, po, 30 mg/kg, route gavage, dose level High; for APTT / Bas / Eos / Fbg / Hb / Ht / Lym / MCH / MCHC / MCV / Mono / Neu / PT / Plat / RBC / Ret / WBC: tissue Blood; for KIDNEY_L / KIDNEY_R / KIDNEY_TOTAL: tissue Kidney; for LIVER: tissue Liver; for A/G / ALP / ALT / AST / BUN / CRE / Ca / Cl / DBIL / GLC / IP / K / LDH / Na / PL / RALB / TBIL / TC / TG / TP / gamma-GTP: tissue Plasma
smiles,measurement,setting,value
Nc1c2c(nc3ccccc13)CCCC2 [TACRINE],TERMINAL_BW,"72 h, time 3 day",194.7 g
same,APTT,"72 h, time 3 day",21.3 s
same,Bas,"72 h, time 3 day",0%
same,Eos,"72 h, time 3 day",0.7%
same,Fbg,"72 h, time 3 day",361.7 mg/dL
same,Hb,"72 h, time 3 day",14.3 g/dL
same,Ht,"72 h, time 3 day",40.7%
same,Lym,"72 h, time 3 day",73%
same,MCH,"72 h, time 3 day",21 pg
same,MCHC,"72 h, time 3 day",35.1%
same,MCV,"72 h, time 3 day",59.8 fL
same,Mono,"72 h, time 3 day",2.7%
same,Neu,"72 h, time 3 day",22%
same,PT,"72 h, time 3 day",16.1 s
same,Plat,"72 h, time 3 day",120.4 x10_4/uL
same,RBC,"72 h, time 3 day",681.7 x10_4/ul
same,Ret,"72 h, time 3 day",3%
same,WBC,"72 h, time 3 day",79 x10_2/uL
same,KIDNEY_L,"72 h, time 3 day",0.9 g
same,KIDNEY_R,"72 h, time 3 day",0.9 g
same,KIDNEY_TOTAL,"72 h, time 3 day",1.9 g
same,LIVER,"72 h, time 3 day",8.6 g
same,A/G,"72 h, time 3 day",1.2
same,ALP,"72 h, time 3 day",1465.3 IU/L
same,ALT,"72 h, time 3 day",37.3 IU/L
same,AST,"72 h, time 3 day",82.7 IU/L
same,BUN,"72 h, time 3 day",16.3 mg/dL
same,CRE,"72 h, time 3 day",0.2 mg/dL
same,Ca,"72 h, time 3 day",10.8 mg/dL
same,Cl,"72 h, time 3 day",107.3 meq/L
same,DBIL,"72 h, time 3 day",0.0067 mg/dL
same,GLC,"72 h, time 3 day",169 mg/dL
same,IP,"72 h, time 3 day",7.4 mg/dL
same,K,"72 h, time 3 day",4.1 meq/L
same,LDH,"72 h, time 3 day",229.7 IU/L
same,Na,"72 h, time 3 day",140.7 meq/L
same,PL,"72 h, time 3 day",142.7 mg/dL
same,RALB,"72 h, time 3 day",3.2 g/dL
same,TBIL,"72 h, time 3 day",0.0233 mg/dL
same,TC,"72 h, time 3 day",84 mg/dL
same,TG,"72 h, time 3 day",52 mg/dL
same,TP,"72 h, time 3 day",5.8 g/dL
same,gamma-GTP,"72 h, time 3 day",1 IU/L
same,TERMINAL_BW,"[…], time 7 day",217.1 g
same,TERMINAL_BW,"[…], time 14 day",249.3 g
same,TERMINAL_BW,"[…], time 28 day",315.1 g
same,APTT,"[…], time 7 day",22.7 s
same,Bas,"[…], time 7 day",0%
same,Eos,"[…], time 7 day",0.7%
same,Fbg,"[…], time 7 day",325.7 mg/dL
same,Hb,"[…], time 7 day",14.2 g/dL
same,Ht,"[…], time 7 day",40.2%
same,Lym,"[…], time 7 day",73%
same,MCH,"[…], time 7 day",21.1 pg
same,MCHC,"[…], time 7 day",35.3%
same,MCV,"[…], time 7 day",59.7 fL
same,Mono,"[…], time 7 day",3.3%
same,Neu,"[…], time 7 day",22.3%
same,PT,"[…], time 7 day",16.2 s
same,Plat,"[…], time 7 day",127.6 x10_4/uL
same,RBC,"[…], time 7 day",673.7 x10_4/ul
same,Ret,"[…], time 7 day",4.7%
same,WBC,"[…], time 7 day",124.6 x10_2/uL
same,APTT,"[…], time 14 day",23.8 s
same,Bas,"[…], time 14 day",0%
same,Eos,"[…], time 14 day",1%
same,Fbg,"[…], time 14 day",320 mg/dL
same,Hb,"[…], time 14 day",15.1 g/dL
same,Ht,"[…], time 14 day",41.9%
same,Lym,"[…], time 14 day",79.3%
same,MCH,"[…], time 14 day",20.4 pg
same,MCHC,"[…], time 14 day",36%
same,MCV,"[…], time 14 day",56.8 fL
same,Mono,"[…], time 14 day",1.7%
same,Neu,"[…], time 14 day",17.3%
same,PT,"[…], time 14 day",15.8 s
same,Plat,"[…], time 14 day",126 x10_4/uL
same,RBC,"[…], time 14 day",737.3 x10_4/ul
same,Ret,"[…], time 14 day",3.5%
same,WBC,"[…], time 14 day",110.7 x10_2/uL
same,APTT,"[…], time 28 day",21.4 s
same,Bas,"[…], time 28 day",0%
same,Eos,"[…], time 28 day",1%
same,Fbg,"[…], time 28 day",295 mg/dL
same,Hb,"[…], time 28 day",15 g/dL
same,Ht,"[…], time 28 day",41.2%
same,Lym,"[…], time 28 day",74%
same,MCH,"[…], time 28 day",20.1 pg
same,MCHC,"[…], time 28 day",36.4%
same,MCV,"[…], time 28 day",55.1 fL
same,Mono,"[…], time 28 day",2%
same,Neu,"[…], time 28 day",22%
same,PT,"[…], time 28 day",16.5 s
same,Plat,"[…], time 28 day",114.6 x10_4/uL
same,RBC,"[…], time 28 day",748 x10_4/ul
same,Ret,"[…], time 28 day",3.3%
same,WBC,"[…], time 28 day",119.9 x10_2/uL
same,KIDNEY_L,"[…], time 7 day",1 g
same,KIDNEY_R,"[…], time 7 day",1 g
same,KIDNEY_TOTAL,"[…], time 7 day",1.9 g
same,KIDNEY_L,"[…], time 14 day",1.1 g
same,KIDNEY_R,"[…], time 14 day",1.1 g
same,KIDNEY_TOTAL,"[…], time 14 day",2.2 g
same,KIDNEY_L,"[…], time 28 day",1.2 g
same,KIDNEY_R,"[…], time 28 day",1.2 g
same,KIDNEY_TOTAL,"[…], time 28 day",2.4 g
same,LIVER,"[…], time 7 day",8.9 g
same,LIVER,"[…], time 14 day",9.8 g
same,LIVER,"[…], time 28 day",11.2 g
same,A/G,"[…], time 7 day",1.2
same,ALP,"[…], time 7 day",923 IU/L
same,ALT,"[…], time 7 day",41 IU/L
same,AST,"[…], time 7 day",79.7 IU/L
same,BUN,"[…], time 7 day",15 mg/dL
same,CRE,"[…], time 7 day",0.2 mg/dL
same,Ca,"[…], time 7 day",10.9 mg/dL
same,Cl,"[…], time 7 day",105.7 meq/L
same,DBIL,"[…], time 7 day",0.0033 mg/dL
same,GLC,"[…], time 7 day",176.3 mg/dL
same,IP,"[…], time 7 day",9.6 mg/dL
same,K,"[…], time 7 day",4.2 meq/L
same,LDH,"[…], time 7 day",268.3 IU/L
same,Na,"[…], time 7 day",141 meq/L
same,PL,"[…], time 7 day",140.7 mg/dL
same,RALB,"[…], time 7 day",3 g/dL
same,TBIL,"[…], time 7 day",0.0167 mg/dL
same,TC,"[…], time 7 day",70.7 mg/dL
same,TG,"[…], time 7 day",95.7 mg/dL
same,TP,"[…], time 7 day",5.6 g/dL
same,gamma-GTP,"[…], time 7 day",1 IU/L
same,A/G,"[…], time 14 day",1.2
same,ALP,"[…], time 14 day",1172 IU/L
same,ALT,"[…], time 14 day",39 IU/L
same,AST,"[…], time 14 day",74.7 IU/L
same,BUN,"[…], time 14 day",19.7 mg/dL
same,CRE,"[…], time 14 day",0.2 mg/dL
same,Ca,"[…], time 14 day",10.9 mg/dL
same,Cl,"[…], time 14 day",106.3 meq/L
same,DBIL,"[…], time 14 day",0 mg/dL
same,GLC,"[…], time 14 day",174 mg/dL
same,IP,"[…], time 14 day",8.1 mg/dL
same,K,"[…], time 14 day",4.6 meq/L
same,LDH,"[…], time 14 day",212.7 IU/L
same,Na,"[…], time 14 day",141 meq/L
same,PL,"[…], time 14 day",143 mg/dL
same,RALB,"[…], time 14 day",3 g/dL
same,TBIL,"[…], time 14 day",0.02 mg/dL
same,TC,"[…], time 14 day",69.3 mg/dL
same,TG,"[…], time 14 day",104 mg/dL
same,TP,"[…], time 14 day",5.5 g/dL
same,gamma-GTP,"[…], time 14 day",1 IU/L
same,A/G,"[…], time 28 day",1
same,ALP,"[…], time 28 day",1280 IU/L
same,ALT,"[…], time 28 day",35 IU/L
same,AST,"[…], time 28 day",81 IU/L
same,BUN,"[…], time 28 day",17 mg/dL
same,CRE,"[…], time 28 day",0.2 mg/dL
same,Ca,"[…], time 28 day",10.4 mg/dL
same,Cl,"[…], time 28 day",106 meq/L
same,DBIL,"[…], time 28 day",0 mg/dL
same,GLC,"[…], time 28 day",160 mg/dL
same,IP,"[…], time 28 day",8.2 mg/dL
same,K,"[…], time 28 day",4.2 meq/L
same,LDH,"[…], time 28 day",96 IU/L
same,Na,"[…], time 28 day",143 meq/L
same,PL,"[…], time 28 day",128 mg/dL
same,RALB,"[…], time 28 day",2.9 g/dL
same,TBIL,"[…], time 28 day",0.03 mg/dL
same,TC,"[…], time 28 day",71 mg/dL
same,TG,"[…], time 28 day",64 mg/dL
same,TP,"[…], time 28 day",5.7 g/dL
same,gamma-GTP,"[…], time 28 day",1 IU/L
